Like-named read-outs stand apart in the source and are kept apart here.
What was measured:
[1] = tested on: HeLa cells; experiment: Endocytic uptake (fluorescence of endocytic organelles); format: cell-based, human; conditions: 1 h at 37°C, washed, fluorescence imaging (TMR-TAT 3 µM; TMR-K9 higher concentration)
Procedure: HeLa (human cervical adenocarcinoma), COS-7 (SV40 transformed African green monkey kidney fibroblast-like cell line) were obtained from ATCC. COLO 316 (human ovarian carcinoma) were obtained from Robert Burghardt (Department of Veterinary Integrative Biosciences, Texas A&M University). Cells were cultured in DMEM supplemented with 10% fetal bovine serum (FBS) and maintained at 37°C in a humidified environment with 5% CO2. Cells were plated in 8-well dishes so that the cells were 70% confluent after 24 h, washed 3 times with L-15 media, incubated with 3 to 10 µM peptides at 37°C for 1 h, washed 3 times with L-15, and imaged. Alternatively, cells were incubated in L-15 at 4°C to inhibit the endocytic uptake of peptides. In this case, cells were imaged with the peptide still present in solution and the low temperature was maintained for the entire duration of imaging. For photosensitization, cells were exposed to light (λex = 560±20 nm) for the indicated time points. Plasma membrane disruption was detected by addition of the cell-impermeable DNA stain SYTOX Blue (5 µM) during or after photosensitization.
Supplementary file pone.0017732.s003.tif: Figure S3 Comparison of the fluorescence intensity of endosomes containing TMR-TAT (incubation at 3 µM) or TMR-K9 (incubation at 10 µM) in the images presented in Figure 1. Imaging was performed in both cases under identical conditions. The fluorescence intensities of all endocytic organelles was measured the Slidebook software. […] (TIF) Click here for additional data file.

[2] = tested on: HeLa cells; experiment: Photocytotoxicity of endocytosed peptide after light irradiation (SYTOX Blue staining, membrane blebbing); format: cell-based
[3] = tested on: red blood cells (RBCs); format: cell-based
Procedure: Supplementary file pone.0017732.s005.tif: Figure S5 A) Photohemolysis of RBCs with TMR-TAT. Short light exposure tat 560 nm to RBCs incubated with TMR-TAT (3 µM) causes lysis and formation of ghost cells as observed by bright field imaging. Lysis of more than 90% of the cells can be achieved when light exposure is increased. Initially, the ghosts formed appear to have a constant diameter as shown in the images corresponding to exposure at 20 J/cm^2 and 60 J/cm^2. As light exposure is increased, the ghosts shrink to a much smaller diameter (120 J/cm^2 image). This shrinkage was not observed when the ghosts formed by irradiation with 60 J/cm^2 of light were incubated without additional light irradiation (data not shown). […] The RBCs were then spun down at low speed and the supernatant was removed from the pelleted cells. Cells were rapidly washed with cold PBS (4°C) and spun down twice. Images are the bright field and TMR confocal fluorescence images before and after washing of the RBCs. During incubation, the interior of RBCs display a dark contrast when compared to the fluorescent peptide present in solution. After washing the cells, no appreciable TMR fluorescence could be detected. It is important to note that RBCs have a weak autofluorescence signal in the TMR channel. […]

[4] = tested on: HeLa cells; experiment: Photo-induced activity as a function of time in the endocytic pathway (endocytic degradation); format: cell-based, human; conditions: 3 µM 1 h, washed, read-out of endocytic degradation
Procedure: One would expect that TMR-TAT would accumulate within late endosomes and lysosomes over time and that the TAT moiety might be degraded by proteases present in these organelles. If TAT is required for the lytic activity of TMR-TAT, degradation of the peptide should therefore abolish the activity of the compound. On the other hand, riTAT should be resistant to proteolysis and its lytic activity should not be dependent on the incubation time. HeLa cells were treated with TMR-TAT or TMR-riTAT for 1 hour to allow for endocytosis. The cells were then washed and incubated for an additional 1, 4, or 8 hours in L-15 media to allow for the accumulation of the endocytosed peptides into late endosomes and lysosomes. The cells were then observed under the microscope and treated with light as described in the previous paragraph.
Figure 3 Degradation of TMR-TAT in endocytic organelles abolishes photo-induced endosomal release and photocytotoxicity. HeLa cells were incubated with TMR-TAT or TMR-riTAT (3 µM) for 1 h, washed, and incubated at 37°C for an additional 1, 4 or 8 hours. […] The histogram represents the average percentage of cells stained by SYTOX® Blue after peptide and light treatment (the number of cells examined is at least 3000) and the error bars represent the standard deviation (experiments were reproduced at least 3 times).

`CN(C)c1ccc2c(c1)Oc1cc(N(C)C)ccc1C21OC(=O)c2cc(C(=O)NCC(=O)N[C@@H](CCCNC(=N)N)C(=O)N[C@@H](CCCCN)C(=O)N[C@@H](CCCCN)C(=O)N[C@@H](CCCNC(=N)N)C(=O)N[C@@H](CCCNC(=N)N)C(=O)N[C@@H](CCC(N)=O)C(=O)N[C@@H](CCCNC(=N)N)C(=O)N[C@@H](CCCNC(=N)N)C(=O)N[C@@H](CCCNC(=N)N)C(=O)NCC(N)=O)ccc21` [TMR-TAT] was tested, and the “endocytic uptake by cells” value [1] was “punctate intracellular distribution”, the “cell destruction after irradiation at 430 nm” value ([2]; HeLa incubated with TMR-TAT, 430 nm (not absorbed by TMR), radiant exposure approx. 40 J/cm^2) was “not destroyed” and the “cell death on exposure to light of wavelengths not absorbed by TMR” value ([2]; HeLa, e.g. 436 or 470 nm) was “no cell death”. For the same compound, the “penetration into RBCs” value ([3]; 10 µM in PBS for 1 hour, washed with cold PBS, confocal fluorescence) was “does not penetrate RBCs to a large extent”, the “penetration into RBCs” value ([3]; 1 to 5 µM) was “do not penetrate RBCs” and the “photo-induced endosomal release and cell-death after additional incubation” value ([4]; additional 1 hour at 37°C in L-15 before irradiation) was “observed”. The “photo-induced endosomal release and cell-death after additional incubation” value ([4]; additional 4 h at 37°C in L-15 before irradiation) was “reduced” and the “photo-induced endosomal release and cell-death after additional incubation” value ([4]; additional 8 h at 37°C in L-15 before irradiation) was “completely abolished”.

Reference: publication PMC3056768, “Conjugation to the Cell-Penetrating Peptide TAT Potentiates the Photodynamic Effect of Carboxytetramethylrhodamine” (PLoS ONE, 2011)
